Measurements: ChEMBL document CHEMBL4725309, “Potent, non-covalent reversible BTK inhibitors with 8-amino-imidazo[1,5-a]pyrazine core featuring 3-position bicyclic ring substitutes” (Bioorg Med Chem Lett, 2020)

How the values were obtained:
[1] = molecular target: Receptor tyrosine-protein kinase erbB-4 (Homo sapiens, UniProt Q15303); experiment: Inhibition of ERBB4 (unknown origin)
Homo sapiens [2] = species: Homo sapiens; experiment: Selectivity index, ratio of IC50 for BMX (unknown origin) to IC50 for recombinant full length BTK (unknown origin) expressed in baculovirus infected Sf9 cells
Homo sapiens [3] = species: Homo sapiens; experiment: Selectivity index, ratio of IC50 for SRMS (unknown origin) to IC50 for recombinant full length BTK (unknown origin) expressed in baculovirus infected Sf9 cells
Homo sapiens [4] = species: Homo sapiens; experiment: Selectivity index, ratio of IC50 for LYNB (unknown origin) to IC50 for recombinant full length BTK (unknown origin) expressed in baculovirus infected Sf9 cells
Homo sapiens [5] = species: Homo sapiens; experiment: Selectivity index, ratio of IC50 for CSK (unknown origin) to IC50 for recombinant full length BTK (unknown origin) expressed in baculovirus infected Sf9 cells
[6] = Volume of distribution at steady state in Wistar Han rat at 2 mg/kg, iv; format: ADME, organism-based; conditions: in vivo, read-out: Vdss
Homo sapiens [7] = species: Homo sapiens; experiment: Selectivity index, ratio of IC50 for LCK (unknown origin) to IC50 for recombinant full length BTK (unknown origin) expressed in baculovirus infected Sf9 cells
Homo sapiens [8] = species: Homo sapiens; experiment: Selectivity index, ratio of IC50 for SRC (unknown origin) to IC50 for recombinant full length BTK (unknown origin) expressed in baculovirus infected Sf9 cells
[9] = molecular target: Tyrosine-protein kinase Lyn (Homo sapiens, UniProt P07948); experiment: Inhibition of LYNB (unknown origin)
Chain of Tyrosine-protein kinase Lyn (P07948 whole entry): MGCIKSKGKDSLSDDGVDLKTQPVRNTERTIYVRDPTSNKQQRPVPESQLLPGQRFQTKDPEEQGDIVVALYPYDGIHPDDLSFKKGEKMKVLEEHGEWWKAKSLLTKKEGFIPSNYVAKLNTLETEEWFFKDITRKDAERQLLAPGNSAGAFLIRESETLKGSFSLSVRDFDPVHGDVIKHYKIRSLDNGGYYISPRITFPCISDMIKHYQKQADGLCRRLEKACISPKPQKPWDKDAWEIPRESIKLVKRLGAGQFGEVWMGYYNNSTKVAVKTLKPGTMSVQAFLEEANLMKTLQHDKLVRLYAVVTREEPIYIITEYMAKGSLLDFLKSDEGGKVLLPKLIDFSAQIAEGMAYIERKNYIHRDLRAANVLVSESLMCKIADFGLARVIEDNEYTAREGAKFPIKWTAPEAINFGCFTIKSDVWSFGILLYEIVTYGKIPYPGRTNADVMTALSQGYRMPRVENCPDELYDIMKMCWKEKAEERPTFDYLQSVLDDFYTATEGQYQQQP

[10] = molecular target: Protein-tyrosine kinase 6 (Homo sapiens, UniProt Q13882); experiment: Inhibition of PTK6 (unknown origin)
Chain of Protein-tyrosine kinase 6 (Q13882 whole entry): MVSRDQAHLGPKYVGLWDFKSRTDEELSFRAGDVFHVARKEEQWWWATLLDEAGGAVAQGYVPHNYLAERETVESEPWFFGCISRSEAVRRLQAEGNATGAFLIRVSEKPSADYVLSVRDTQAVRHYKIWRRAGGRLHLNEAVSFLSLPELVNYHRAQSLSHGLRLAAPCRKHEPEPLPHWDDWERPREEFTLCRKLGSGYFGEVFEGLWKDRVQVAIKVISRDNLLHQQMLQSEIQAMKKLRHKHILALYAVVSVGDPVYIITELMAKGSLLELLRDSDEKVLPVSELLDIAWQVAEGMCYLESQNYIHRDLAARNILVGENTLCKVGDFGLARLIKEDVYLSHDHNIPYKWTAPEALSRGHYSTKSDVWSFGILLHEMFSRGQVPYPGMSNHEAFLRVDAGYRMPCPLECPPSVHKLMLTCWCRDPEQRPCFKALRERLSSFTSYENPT

[11] = molecular target: T1, Tyrosine-protein kinase TXK (Homo sapiens, UniProt P42681); experiment: Inhibition of TXK (unknown origin)
T1 sequence (P42681 whole entry): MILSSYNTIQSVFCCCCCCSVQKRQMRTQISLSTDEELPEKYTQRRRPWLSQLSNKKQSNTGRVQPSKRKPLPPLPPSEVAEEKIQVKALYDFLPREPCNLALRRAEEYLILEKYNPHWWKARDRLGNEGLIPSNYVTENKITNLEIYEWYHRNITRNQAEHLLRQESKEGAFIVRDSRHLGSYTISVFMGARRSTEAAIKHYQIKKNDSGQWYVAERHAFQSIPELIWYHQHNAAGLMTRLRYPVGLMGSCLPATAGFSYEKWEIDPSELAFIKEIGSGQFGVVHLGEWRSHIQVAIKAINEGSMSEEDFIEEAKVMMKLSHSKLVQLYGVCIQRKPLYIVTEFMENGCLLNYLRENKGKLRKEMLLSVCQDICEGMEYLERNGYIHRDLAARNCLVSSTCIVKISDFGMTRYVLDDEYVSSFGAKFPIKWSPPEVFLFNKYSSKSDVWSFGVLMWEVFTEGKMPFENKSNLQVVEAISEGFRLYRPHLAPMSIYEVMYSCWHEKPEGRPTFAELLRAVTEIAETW

Homo sapiens [12] = species: Homo sapiens; experiment: Selectivity index, ratio of IC50 for TEC (unknown origin) to IC50 for recombinant full length BTK (unknown origin) expressed in baculovirus infected Sf9 cells
[13] = Clearance in Wistar Han rat at 2 mg/kg, iv; format: ADME, organism-based; conditions: in vivo
[14] = Tmax in Wistar Han rat at 5 mg/kg, po; format: ADME, organism-based; conditions: in vivo
Homo sapiens [15] = species: Homo sapiens; experiment: Selectivity index, ratio of IC50 for PTK6 (unknown origin) to IC50 for recombinant full length BTK (unknown origin) expressed in baculovirus infected Sf9 cells
[16] = molecular target: Tyrosine-protein kinase Blk (Homo sapiens, UniProt P51451); experiment: Inhibition of BLK (unknown origin)
Chain of Tyrosine-protein kinase Blk (P51451 whole entry): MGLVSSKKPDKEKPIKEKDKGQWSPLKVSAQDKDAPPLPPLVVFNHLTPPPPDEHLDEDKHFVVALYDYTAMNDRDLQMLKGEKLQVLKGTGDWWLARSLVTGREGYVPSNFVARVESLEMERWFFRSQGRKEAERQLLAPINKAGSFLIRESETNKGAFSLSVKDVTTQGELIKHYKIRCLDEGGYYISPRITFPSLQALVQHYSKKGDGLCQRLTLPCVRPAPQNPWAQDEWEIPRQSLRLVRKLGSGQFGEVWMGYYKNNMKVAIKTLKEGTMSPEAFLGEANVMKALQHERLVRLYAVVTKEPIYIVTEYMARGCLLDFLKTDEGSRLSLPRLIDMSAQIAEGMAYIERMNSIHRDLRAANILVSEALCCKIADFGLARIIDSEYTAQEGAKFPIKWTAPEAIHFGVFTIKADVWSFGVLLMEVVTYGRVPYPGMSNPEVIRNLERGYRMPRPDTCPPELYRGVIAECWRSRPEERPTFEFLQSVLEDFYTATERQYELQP

Homo sapiens [17] = species: Homo sapiens; experiment: Selectivity index, ratio of IC50 for FRK (unknown origin) to IC50 for recombinant full length BTK (unknown origin) expressed in baculovirus infected Sf9 cells
Homo sapiens [18] = species: Homo sapiens; experiment: Selectivity index, ratio of IC50 for YES1 (unknown origin) to IC50 for recombinant full length BTK (unknown origin) expressed in baculovirus infected Sf9 cells
[19] = AUC in Wistar Han rat at 2 mg/kg, iv; format: ADME, organism-based; set-up: dose 2 mg/kg; conditions: in vivo
[20] = Cmax in Wistar Han rat at 5 mg/kg, po; format: ADME, organism-based; set-up: route oral, dose 5 mg/kg; conditions: in vivo
Homo sapiens [21] = species: Homo sapiens; experiment: Selectivity index, ratio of IC50 for BLK (unknown origin) to IC50 for recombinant full length BTK (unknown origin) expressed in baculovirus infected Sf9 cells
[22] = molecular target: T2, Tyrosine-protein kinase BTK (Homo sapiens, UniProt Q06187); experiment: Inhibition of BTK in human PBMC assessed as reduction in cell surface CD69 expression preincubated for 1 hr followed by stimulation with goat anti-human IgM F(ab')2 for 18 hrs by immunostaining analysis; format: tissue-based
T2 sequence (Q06187 whole entry): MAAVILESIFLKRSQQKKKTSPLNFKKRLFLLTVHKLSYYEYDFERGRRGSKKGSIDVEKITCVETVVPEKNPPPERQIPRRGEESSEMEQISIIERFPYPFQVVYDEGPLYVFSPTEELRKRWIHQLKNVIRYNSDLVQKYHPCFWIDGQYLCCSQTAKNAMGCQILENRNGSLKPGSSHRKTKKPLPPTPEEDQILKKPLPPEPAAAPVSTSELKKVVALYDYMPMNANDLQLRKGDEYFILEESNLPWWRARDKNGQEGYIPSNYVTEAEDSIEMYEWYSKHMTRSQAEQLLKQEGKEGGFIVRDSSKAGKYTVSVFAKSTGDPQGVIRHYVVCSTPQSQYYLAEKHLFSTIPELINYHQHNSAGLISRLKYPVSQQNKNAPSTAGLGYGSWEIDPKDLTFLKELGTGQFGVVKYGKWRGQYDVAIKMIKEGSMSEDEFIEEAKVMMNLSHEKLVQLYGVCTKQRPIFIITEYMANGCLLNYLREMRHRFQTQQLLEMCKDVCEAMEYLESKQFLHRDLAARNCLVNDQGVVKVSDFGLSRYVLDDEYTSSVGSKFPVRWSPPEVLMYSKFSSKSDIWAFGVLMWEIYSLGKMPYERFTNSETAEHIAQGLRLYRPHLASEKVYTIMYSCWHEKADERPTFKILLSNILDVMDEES

[23] = molecular target: T2, Tyrosine-protein kinase BTK; experiment: Inhibition of BTK in human whole blood assessed as reduction in cell surface CD69 expression preincubated for 1 hr followed by stimulation with anti-CD79b for 3 hrs by immunostaining analysis; format: tissue-based
[24] = molecular target: Tyrosine-protein kinase Srms (Homo sapiens, UniProt Q9H3Y6); experiment: Inhibition of SRMS (unknown origin)
Chain of Tyrosine-protein kinase Srms (Q9H3Y6 whole entry): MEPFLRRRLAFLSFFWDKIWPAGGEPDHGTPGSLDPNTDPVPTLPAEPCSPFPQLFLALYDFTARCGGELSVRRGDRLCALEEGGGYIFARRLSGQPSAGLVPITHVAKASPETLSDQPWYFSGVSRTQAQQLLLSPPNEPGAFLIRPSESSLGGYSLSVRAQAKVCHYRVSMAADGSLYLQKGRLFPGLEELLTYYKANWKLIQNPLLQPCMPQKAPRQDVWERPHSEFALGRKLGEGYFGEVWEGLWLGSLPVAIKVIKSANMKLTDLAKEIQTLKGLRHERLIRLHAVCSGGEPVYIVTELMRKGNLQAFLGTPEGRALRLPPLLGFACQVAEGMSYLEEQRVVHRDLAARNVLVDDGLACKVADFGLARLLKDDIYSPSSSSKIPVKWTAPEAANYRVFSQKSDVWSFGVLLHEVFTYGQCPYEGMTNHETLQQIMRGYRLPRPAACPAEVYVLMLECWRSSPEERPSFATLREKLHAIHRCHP

[25] = Oral bioavailability in Wistar Han rat at 5 mg/kg; format: ADME, organism-based; conditions: in vivo; for bioavailability: Wistar Han
[26] = molecular target: Tyrosine-protein kinase CSK (Homo sapiens, UniProt P41240); experiment: Inhibition of CSK (unknown origin)
Chain of Tyrosine-protein kinase CSK (P41240 whole entry): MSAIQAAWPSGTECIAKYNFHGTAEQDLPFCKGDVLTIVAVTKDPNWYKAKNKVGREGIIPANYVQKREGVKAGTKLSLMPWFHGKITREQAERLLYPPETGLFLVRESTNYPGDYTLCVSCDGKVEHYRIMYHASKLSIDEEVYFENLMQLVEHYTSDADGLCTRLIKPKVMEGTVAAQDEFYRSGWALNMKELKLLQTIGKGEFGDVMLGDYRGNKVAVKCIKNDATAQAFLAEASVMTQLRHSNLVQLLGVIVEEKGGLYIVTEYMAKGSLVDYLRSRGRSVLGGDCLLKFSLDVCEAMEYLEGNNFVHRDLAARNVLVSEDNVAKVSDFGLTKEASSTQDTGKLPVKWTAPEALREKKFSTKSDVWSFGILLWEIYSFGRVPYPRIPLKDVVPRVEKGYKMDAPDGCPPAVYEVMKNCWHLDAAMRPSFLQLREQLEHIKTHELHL

[27] = Half life in Wistar Han rat at 2 mg/kg, iv; format: ADME, organism-based; conditions: in vivo
[28] = molecular target: T3, Cytoplasmic tyrosine-protein kinase BMX (Homo sapiens, UniProt P51813); experiment: Inhibition of BMX (unknown origin)
T3 sequence (P51813 whole entry): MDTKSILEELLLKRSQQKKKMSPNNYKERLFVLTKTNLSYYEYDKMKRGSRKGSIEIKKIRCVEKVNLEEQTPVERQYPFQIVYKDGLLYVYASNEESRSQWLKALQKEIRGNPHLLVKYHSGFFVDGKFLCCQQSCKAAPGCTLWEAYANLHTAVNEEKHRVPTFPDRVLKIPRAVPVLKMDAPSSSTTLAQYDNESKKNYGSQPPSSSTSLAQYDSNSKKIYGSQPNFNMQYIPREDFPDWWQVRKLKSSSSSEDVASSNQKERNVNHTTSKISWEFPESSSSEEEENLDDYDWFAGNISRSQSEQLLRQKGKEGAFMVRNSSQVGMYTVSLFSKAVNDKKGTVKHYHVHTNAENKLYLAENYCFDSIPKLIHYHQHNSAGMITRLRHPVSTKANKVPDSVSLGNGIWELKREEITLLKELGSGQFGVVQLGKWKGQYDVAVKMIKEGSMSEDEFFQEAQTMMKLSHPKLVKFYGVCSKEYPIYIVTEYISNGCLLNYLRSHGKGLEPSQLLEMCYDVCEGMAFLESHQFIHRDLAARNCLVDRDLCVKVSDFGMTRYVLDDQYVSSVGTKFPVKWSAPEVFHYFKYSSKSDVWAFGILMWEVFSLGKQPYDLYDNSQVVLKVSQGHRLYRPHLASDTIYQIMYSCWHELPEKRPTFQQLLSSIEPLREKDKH

[29] = molecular target: Tyrosine-protein kinase Lck (Homo sapiens, UniProt P06239); experiment: Inhibition of LCK (unknown origin)
Chain of Tyrosine-protein kinase Lck (P06239 whole entry): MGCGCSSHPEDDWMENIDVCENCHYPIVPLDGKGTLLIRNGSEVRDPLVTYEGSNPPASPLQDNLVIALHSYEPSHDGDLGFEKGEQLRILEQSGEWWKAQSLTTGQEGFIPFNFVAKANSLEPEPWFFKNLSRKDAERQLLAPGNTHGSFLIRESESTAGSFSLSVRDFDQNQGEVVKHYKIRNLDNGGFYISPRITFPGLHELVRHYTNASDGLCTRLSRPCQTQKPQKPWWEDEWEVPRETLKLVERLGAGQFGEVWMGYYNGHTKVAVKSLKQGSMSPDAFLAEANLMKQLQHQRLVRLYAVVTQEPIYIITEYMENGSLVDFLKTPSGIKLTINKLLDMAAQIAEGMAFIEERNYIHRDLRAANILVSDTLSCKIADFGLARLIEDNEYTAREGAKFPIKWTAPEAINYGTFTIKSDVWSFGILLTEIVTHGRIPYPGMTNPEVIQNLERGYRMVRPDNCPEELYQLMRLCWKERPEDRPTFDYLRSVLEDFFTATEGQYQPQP

Chain of Receptor tyrosine-protein kinase erbB-4 (Q15303 whole entry): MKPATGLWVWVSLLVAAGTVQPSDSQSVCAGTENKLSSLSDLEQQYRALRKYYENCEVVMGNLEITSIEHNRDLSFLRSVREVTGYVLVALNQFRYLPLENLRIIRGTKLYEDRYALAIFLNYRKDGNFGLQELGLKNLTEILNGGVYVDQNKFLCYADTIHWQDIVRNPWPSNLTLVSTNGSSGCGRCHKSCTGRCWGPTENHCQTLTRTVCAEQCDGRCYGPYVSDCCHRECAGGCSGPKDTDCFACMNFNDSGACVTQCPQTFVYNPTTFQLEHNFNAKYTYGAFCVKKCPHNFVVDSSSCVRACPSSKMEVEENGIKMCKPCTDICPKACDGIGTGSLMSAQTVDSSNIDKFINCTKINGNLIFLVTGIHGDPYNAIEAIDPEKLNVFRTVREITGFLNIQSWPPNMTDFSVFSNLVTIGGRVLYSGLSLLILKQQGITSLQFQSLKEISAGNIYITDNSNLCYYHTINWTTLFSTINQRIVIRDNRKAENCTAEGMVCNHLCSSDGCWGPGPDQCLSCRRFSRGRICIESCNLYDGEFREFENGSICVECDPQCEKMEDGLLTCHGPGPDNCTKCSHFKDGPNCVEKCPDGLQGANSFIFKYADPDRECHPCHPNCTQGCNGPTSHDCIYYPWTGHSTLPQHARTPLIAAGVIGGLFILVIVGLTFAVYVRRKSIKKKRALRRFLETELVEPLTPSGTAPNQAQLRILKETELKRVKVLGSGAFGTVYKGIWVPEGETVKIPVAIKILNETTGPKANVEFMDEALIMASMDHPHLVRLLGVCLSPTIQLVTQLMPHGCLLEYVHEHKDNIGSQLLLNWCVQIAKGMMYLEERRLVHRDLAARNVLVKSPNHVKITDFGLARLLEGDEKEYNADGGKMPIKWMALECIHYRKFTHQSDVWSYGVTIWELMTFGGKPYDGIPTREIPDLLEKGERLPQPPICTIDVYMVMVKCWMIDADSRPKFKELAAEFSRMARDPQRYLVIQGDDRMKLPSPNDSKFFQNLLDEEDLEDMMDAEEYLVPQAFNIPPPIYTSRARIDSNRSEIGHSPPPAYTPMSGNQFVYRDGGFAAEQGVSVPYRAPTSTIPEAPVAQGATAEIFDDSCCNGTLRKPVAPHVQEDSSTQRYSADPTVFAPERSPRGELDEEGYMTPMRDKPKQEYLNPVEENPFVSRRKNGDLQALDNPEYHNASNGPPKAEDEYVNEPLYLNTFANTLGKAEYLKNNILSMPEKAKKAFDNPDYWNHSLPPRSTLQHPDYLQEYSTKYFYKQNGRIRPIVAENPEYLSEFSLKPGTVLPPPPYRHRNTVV

| Structure (SMILES) | IC50 [1] | Ratio IC50 (Homo sapiens [2]) | Ratio IC50 (Homo sapiens [3]) | Ratio IC50 (Homo sapiens [4]) | Ratio IC50 (Homo sapiens [5]) | Vd [6] | Ratio IC50 (Homo sapiens [7]) | Ratio IC50 (Homo sapiens [8]) | IC50 [9] | IC50 [10] | IC50 [11] | Ratio IC50 (Homo sapiens [12]) | clearance [13] | Tmax [14] | Ratio IC50 (Homo sapiens [15]) | IC50 [16] | Ratio IC50 (Homo sapiens [17]) | Ratio IC50 (Homo sapiens [18]) | AUC [19] | Cmax [20] | other results |
| --- | --- | --- | --- | --- | --- | --- | --- | --- | --- | --- | --- | --- | --- | --- | --- | --- | --- | --- | --- | --- | --- |
| Nc1nccn2c([C@@H]3CC[C@H]4COC(=O)N4C3)nc(-c3ccc(C(=O)Nc4cc(C(F)(F)F)ccn4)cc3)c12 | 0.034 µM | 157 | 169 | 590 | 3500 | 1.2 L/kg | 132 | 1110 | 0.049 µM | 0.05 µM | 0.046 µM | 1110 | 17 mL/min/kg | 0.25 h | 600 | 0.022 µM | 554 | 420 | 5.1 µM·h | 340 nM | Ratio IC50 (Homo sapiens [21]): 265; IC50 [22]: 0.0058 µM; IC50 [23]: 0.036 µM; IC50 [24]: 0.014 µM; bioavailability [25]: 3.6%; IC50 [26]: 0.29 µM; half-life [27]: 5.1 h; IC50 [28]: 0.013 µM; IC50 [29]: 0.011 µM |
| Nc1nccn2c([C@@H]3CC[C@H]4CCC(=O)N4C3)nc(-c3ccc(C(=O)Nc4cc(C(F)(F)F)ccn4)cc3)c12 | 0.024 µM | 110 | 91 | 200 | 1620 | 0.78 L/kg | 59 | 330 | 0.02 µM | 0.042 µM | 0.033 µM | 630 | 8 mL/min/kg | 0.75 h | 420 | 0.0083 µM | 340 | 120 | 7.8 µM·h | 1300 nM | Ratio IC50 (Homo sapiens [21]): 83; IC50 [22]: 0.0025 µM; IC50 [23]: 0.024 µM; IC50 [24]: 0.0091 µM; bioavailability [25]: 46%; IC50 [26]: 0.162 µM; half-life [27]: 2.8 h; IC50 [28]: 0.011 µM; IC50 [29]: 0.0059 µM |
| CC1(C)OC(=O)N2C[C@H](c3nc(-c4ccc(C(=O)Nc5cc(C(F)(F)F)ccn5)cc4)c4c(N)nccn34)CC[C@H]21 | 0.023 µM | 47 | 67 | 660 | 2900 | 5.6 L/kg | 110 | 570 | 0.079 µM | 0.024 µM | 0.015 µM | 220 | 26 mL/min/kg | 2.5 h | 200 | 0.017 µM | 300 | 250 | 2.3 µM·h | 1000 nM | Ratio IC50 (Homo sapiens [21]): 140; IC50 [22]: 0.0028 µM; IC50 [23]: 0.058 µM; IC50 [24]: 0.008 µM; F ([25]; 5 mg/kg): 160%; IC50 [26]: 0.35 µM; half-life [27]: 3.6 h; IC50 [28]: 0.0056 µM; IC50 [29]: 0.013 µM |
